Assay results from ChEMBL document CHEMBL1156738, “Design, synthesis and evaluation of novel oxazaphosphorine prodrugs of 9-(2-phosphonomethoxyethyl)adenine (PMEA, adefovir) as potent HBV inhibitors” (Bioorg Med Chem Lett, 2009).

Tests used:
Hepatitis B virus [1] = assay: Antiviral activity against Hepatitis B virus infected HepG2(2.2.15) cells assessed as inhibition of viral cytoplasmic DNA synthesis by real-time PCR; assay type: functional, organism-based
[2] = Selectivity index, ratio of CC50 for human HepG2(2.2.15) cells to IC50 for Hepatitis B virus; assay type: functional
[3] = Cytotoxicity against human HepG2(2.2.15) cells; assay type: cell-based
[4] = Metabolic stability in human liver microsomes assessed as half life; assay type: ADME, Microsome
Hepatitis B virus [5] = assay: Ratio of compound IC50 to adefovir dipivoxil IC50 for Hepatitis B virus; assay type: functional
Homo sapiens = species: Homo sapiens; assay: Metabolic stability in human plasma assessed as half life

COC(=O)[C@H](C)N1CCCO[P@@]1(=O)COCCn1cnc2c(N)ncnc21.O=C(O)/C=C/C(=O)O
IC50 (Hepatitis B virus [1]): 0.91 µM
Ratio CC50/IC50 [2]: 649
CC50 [3]: 590 µM

CCOC(=O)[C@@H](C(C)C)N1CCCO[P@@]1(=O)COCCn1cnc2c(N)ncnc21.O=C(O)/C=C/C(=O)O
IC50 (Hepatitis B virus [1]): 50 µM
Ratio CC50/IC50 [2]: 9
CC50 [3]: 439 µM

CCOC(=O)[C@H](C(C)C)N1CCCO[P@@]1(=O)COCCn1cnc2c(N)ncnc21.O=C(O)/C=C/C(=O)O
IC50 (Hepatitis B virus [1]): 50 µM
Ratio CC50/IC50 [2]: 9
CC50 [3]: 468 µM

COC(=O)[C@H](Cc1ccccc1)N1CCCOP1(=O)COCCn1cnc2c(N)ncnc21.O=C(O)/C=C/C(=O)O (some centres not stated)
IC50 (Hepatitis B virus [1]): 2.62 µM
Ratio CC50/IC50 [2]: 277
CC50 [3]: 726 µM

CCOC(=O)[C@H](C(C)C)N1CCCO[P@]1(=O)COCCn1cnc2c(N)ncnc21.O=C(O)/C=C/C(=O)O
IC50 (Hepatitis B virus [1]): 3 µM
Ratio CC50/IC50 [2]: 187
CC50 [3]: 560 µM

COC(=O)[C@H](C(C)C)N1CCCO[P@@]1(=O)COCCn1cnc2c(N)ncnc21.O=C(O)/C=C/C(=O)O
half-life [4]: > 6 h

CC(C)OC(=O)[C@H](C(C)C)N1CCCO[P@]1(=O)COCCn1cnc2c(N)ncnc21.O=C(O)/C=C/C(=O)O
IC50 (Hepatitis B virus [1]): 5.76 µM
Ratio CC50/IC50 [2]: 103
CC50 [3]: 592 µM

COC(=O)[C@H](C(C)C)N1CCCO[P@]1(=O)COCCn1cnc2c(N)ncnc21.O=C(O)/C=C/C(=O)O
IC50 (Hepatitis B virus [1]): 0.12 µM
Ratio CC50/IC50 [2]: 4800
CC50 [3]: 577 µM
Ratio (Hepatitis B virus [5]): 3
half-life [4]: 3.6 h
half-life (Homo sapiens): > 6 h

COC(=O)[C@H](CC(C)C)N1CCCOP1(=O)COCCn1cnc2c(N)ncnc21.O=C(O)/C=C/C(=O)O (some centres not stated)
IC50 (Hepatitis B virus [1]): 0.32 µM
Ratio CC50/IC50 [2]: 694
CC50 [3]: 222 µM

COC(=O)CN1CCCOP1(=O)COCCn1cnc2c(N)ncnc21.O=C(O)/C=C/C(=O)O (racemic)
IC50 (Hepatitis B virus [1]): 0.88 µM
Ratio CC50/IC50 [2]: 683
CC50 [3]: 602 µM

CCOC(=O)[C@@H](C(C)C)N1CCCO[P@]1(=O)COCCn1cnc2c(N)ncnc21.O=C(O)/C=C/C(=O)O
IC50 (Hepatitis B virus [1]): 50 µM
Ratio CC50/IC50 [2]: 8
CC50 [3]: 400 µM

COC(=O)[C@H](C)N1CCCO[P@]1(=O)COCCn1cnc2c(N)ncnc21.O=C(O)/C=C/C(=O)O
IC50 (Hepatitis B virus [1]): 0.51 µM
Ratio CC50/IC50 [2]: 1270
CC50 [3]: 650 µM

CCC(C)[C@@H](C(=O)OC)N1CCCOP1(=O)COCCn1cnc2c(N)ncnc21.O=C(O)/C=C/C(=O)O (some centres not stated)
IC50 (Hepatitis B virus [1]): 2.21 µM
Ratio CC50/IC50 [2]: 293
CC50 [3]: 648 µM

CC(C)(C)C(=O)OCOP(=O)(COCCn1cnc2c(N)ncnc21)OCOC(=O)C(C)(C)C [ADEFOVIR DIPIVOXIL]
IC50 (Hepatitis B virus [1]): 0.33 µM
CC50 [3]: 555 µM
